Molecules are shown by their SMILES.

The target in the test is T1, FXR ligand binding domain (Homo sapiens, UniProt Q96RI1).
T1 construct: expressed in transfected cells; host or cells: HEK293 (DSMZ), transient transfection of pCMV-BD-FXR-LBD, pFR-Luc and pRL-CMV
T1 sequence (Q96RI1 187-472 isoform Q96RI1-2): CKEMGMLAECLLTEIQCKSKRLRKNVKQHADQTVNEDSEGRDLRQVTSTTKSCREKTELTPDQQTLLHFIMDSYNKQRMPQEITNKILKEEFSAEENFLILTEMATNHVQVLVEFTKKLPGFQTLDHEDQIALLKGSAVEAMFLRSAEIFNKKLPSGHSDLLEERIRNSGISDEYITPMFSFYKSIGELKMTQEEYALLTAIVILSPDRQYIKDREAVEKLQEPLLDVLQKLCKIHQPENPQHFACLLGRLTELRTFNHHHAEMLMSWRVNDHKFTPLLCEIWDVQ
Briefly: Mammalian one hybrid (M1H) Gal4 reporter assay in HEK293 cells. The class given is cell-based. The note with it: Gal4-FXR-LBD luciferase reporter, 16 hours. As for the experimental part: Determination of a ligand mediated Gal4 promoter driven transactivation to quantify ligand binding mediated activation of FXR was performed as follows.
The cDNA part encoding the FXR ligand binding domain was cloned into vector pCMV-BD (Stratagene) as a fusion to the yeast GAL4 DNA binding domain under the control of the CMV promoter. The amino acid boundaries of the ligand binding domain were amino acids 187-472 of Database entry NM_005123 (RefSeq). The plasmid pFR-Luc (Stratagene) was used as the reporter plasmid, containing a synthetic promoter with five tandem repeats of the yeast GAL4 binding sites, driving the expression of the Photinus pyralis (American firefly) luciferase gene as the reporter gene. In order to improve experimental accuracy the plasmid pRL-CMV (Promega) was cotransfected. pRL-CMV contains the constitutive CMV promoter, controlling the expression of the Renilla reniformis luciferase. All Gal4 reporter gene assays were done in HEK293 cells (obtained from DSMZ, Braunschweig, Germany) grown in MEM with L-Glutamine and Earle's BSS supplemented with 10% fetal bovine serum, 0.1 mM nonessential amino acids, 1 mM sodium pyruvate, and 100 units Penicillin/[…] per mL at about 37° C. in 5% CO2. Medium and supplements were obtained from Invitrogen. For the assay, 5×10^5 cells were plated per well in 96 well plates in 100 μl per well MEM without Phenol Red and L-Glutamine and with Earle's BSS supplemented with 10% charcoal/dextran treated FBS (HyClone, South Logan, Utah), 0.1 mM nonessential amino acids, 2 mM glutamine, 1 mM sodium pyruvate, and 100 units Penicillin/[…] per mL, incubated at about 37° C. in 5% CO2. The following day the cells were >90% confluence. […] Cells were incubated for additional 16 hours before firefly and renilla luciferase activities were measured sequentially in the same cell extract using a Dual-Light-Luciferase-Assay system (Dyer et al., Anal. Biochem. 2000, 282, 158-161). […]
On the technique in general: A reporter such as luciferase makes a cellular process visible.
What is called EC50 is the concentration that produces a half-maximal response. Low readings indicate higher potency in that assay, high ones lower potency in that assay. Regarding `O=C(O)c1cnc(N2CC(O)(c3ccc(OCc4c(-c5c(Cl)cc(F)cc5Cl)noc4C4CC4)cc3Cl)C2)c(F)c1` [Comparative Example 1, 6-(3-(2-chloro-4-((5-cyclopropyl-3-(2,6-dichloro-4-fluorophenyl)isoxazol-4-yl)methoxy)phenyl)-3-hydroxyazetidin-1-yl)-5-fluoronicotinic acid], the EC50 came to 1.2 nM.

`O=C(O)c1ccc(N2CC(O)(c3ccc(OCc4c(-c5c(Cl)cccc5Cl)noc4C4CC4)cc3Cl)C2)nc1` [Comparative Example 2] yielded an EC50 of 2 nM. The figure for `O=C(O)c1ccc(N2CC(O)(c3ccc(OCc4c(-c5c(Cl)cc(F)cc5Cl)noc4C4CC4)cc3Cl)C2)nc1` [Example 1, 6-(3-(2-chloro-4-((5-cyclopropyl-3-(2,6-dichloro-4-fluorophenyl)isoxazol-4-yl)methoxy)phenyl)-3-hydroxyazetidin-1-yl)nicotinic acid] is 5.5 nM.
